Measured values taken from patent US9006285B2, “Therapeutic agent for hepatitis C” (Mochida Pharmaceutical Co., Ltd., priority 2008, dated 2015).

Legend:
[1] = system: HCV replication in OR6 cells; settings: cited from earlier work
[2] = in vivo; cited from earlier work
hepatitis C virus (HCV) [3] = experiment: EPA-E before and during interferon therapy in hepatitis C with or without hepatic steatosis (Example 2-2); type: in vivo, human; settings: 1800 to 2700 mg/day oral at least one month before and during interferon therapy
Method: The patients to be tested are divided into two groups, EPA-E administered group and EPA-E non-administered group. In addition, a fatty liver group and a non-fatty liver group are set up in each of the EPA-E administered group and the EPA-E non-administered group by investigating the degree of hepatic fatty change through diagnostic imaging or hepatobiopsy. To the EPA-E administered group, 1800 to 2700 mg/day of EPA-E is orally administered for at least one month before interferon therapy. To the EPA-E non-administered group, none of EPA and derivatives thereof is administered during the testing period. Subsequently, interferon therapy is conducted on each group for three months or longer. The dose, dosage interval, dosage period, and the like of interferon are specified as appropriate to the condition of a patient, side effects of the interferon, and so forth. After the termination of interferon administration, the alanine aminotransferase (ALT) activity and the HCV-RNA level are measured (the latter by a COBAS AMPLICOR MONITOR assay), and a hepatohistological test is conducted. It should be noted that EPA-E is also administered to the EPA-E group during the administration of interferon.

[4] = system: HCV replication in Ava5 cells; settings: cited from earlier work
hepatitis C virus (HCV) [5] = settings: hepatitis C patients; cited from earlier work
hepatitis C virus (HCV) [6] = experiment: EPA-E in interferon non-responders having hepatitis C complicated with hepatic steatosis (Example 1); type: in vivo, human; settings: 2700 mg/day oral, third and sixth month, no interferon
Method: To the patients from whom interferon was withdrawn for about one month after they were determined to be unresponsive to interferon therapy, 2700 mg/day of EPA-E is orally administered for three months or longer. During the testing period, it is forbidden to administer any new drug considered to effect change in hepatic function. Also forbidden is administration of interferon. If the alanine aminotransferase (ALT) activity and/or the HCV-RNA level is quantified (the latter by a COBAS AMPLICOR MONITOR assay) before EPA-E administration, as well as on the third month and the sixth month of EPA-E administration, and the values as obtained are compared with those before administration, it is confirmed that the ALT activity and/or the HCV-RNA level is reduced by not less than 10%.
Instead of the ALT activity, improvement in liver tissue finding, reduction in lipid droplet, or reduction in proportion of 18:1 fatty acids (oleic acid in particular) among liver triglyceride fractions may be confirmed.

[7] = system: blood HCV-RNA level (hepatitis C virus); experiment: Interferon therapy (interferon and ribavirin) with or without EPA-E in hepatitis C patients, by blood triglyceride level (Example 3); type: in vivo, human; settings: hepatitis C complicated with hypertriglyceridemia; interferon therapy along with oral 1800 to 2700 mg/day EPA-E
From the text: The determination of the response rate to interferon therapy needs a follow-up survey for six months or longer after the completion of the therapy, that is to say, is time-consuming. The response rate can be determined earlier by using a leading index as a surrogate. For instance, the response rate to interferon therapy is expected to be increased if the reduction in viral load (reduction in blood HCV-RNA level) is significant three days after the start of the therapy. Accordingly, the reduction in viral load three days after the start of interferon therapy can be used as a leading index for the determination of the response rate to the interferon therapy. The reduction in viral load is preferably not less than 2.0 as the difference between the common logarithm value of the blood HCV-RNA level before the start of interferon therapy and the common logarithm value of the blood HCV-RNA level three days after the start of interferon therapy.
On the patients having hepatitis C complicated with hypertriglyceridemia, the interferon therapy was then conducted along with the oral administration of 1800 to 2700 mg/day of EPA-E.
As a result, the reduction in viral load was 2.375 on average, that is to say, EPA-E improved the effectiveness of the interferon therapy in the patients having hepatitis C complicated with hypertriglyceridemia. […]

[8] = system: blood HCV-RNA level (hepatitis C virus); experiment: Time to negativity for the blood HCV-RNA level on repeated interferon therapy after EPA-E (Example 2-3); type: in vivo, human; settings: 1800 to 2700 mg/day oral at least two weeks before repeated interferon therapy
Method: Employing those hepatitis C patients as targets who were determined as non-responders or relapsers after interferon therapy, it is confirmed that the time at which the patients become negative for the blood HCV-RNA level is allowed to be earlier by the administration of EPA-E.
(§1) The patients to be tested are divided into two groups, EPA-E administered group and EPA-E non-administered group. To the EPA-E administered group, 1800 to 2700 mg/day of EPA-E is orally administered for at least two weeks after the patients were determined as non-responders or relapsers with respect to the interferon therapy. To the EPA-E non-administered group, none of EPA and derivatives thereof is administered during the testing period. Subsequently, the interferon therapy is conducted again on both groups. The dose, dosage interval, dosage period, and the like of interferon are specified as appropriate to the condition of a patient, side effects of the interferon, and so forth. The blood HCV-RNA level is measured in course of the administration of interferon. Data on the time after the start of interferon administration at which the patients became negative for the blood HCV-RNA level are collected to comparison between the two groups.
For instance, the ratio of the patients becoming negative for the blood HCV-RNA level within 12 weeks after the start of interferon administration is increased.

hepatitis C virus (HCV) [9] = experiment: Response rate to repeated interferon therapy after EPA-E in non-responders or relapsers (Example 2-1); type: in vivo, human; settings: 1800 to 2700 mg/day oral for three months before repeated interferon therapy; six months after completion of interferon therapy
Method: Employing those hepatitis C patients as targets who were determined as non-responders or relapsers after interferon therapy, it is confirmed that the response rate to the interferon therapy is improved in re-treatment cases by the administration of EPA-E.
as §1, with “groups, namely,” for “groups,”, “three months” for “at least two weeks”, “ratio” for “blood HCV-RNA level is measured in course of the administration of interferon. Data on the time after the start of interferon administration”, “the” for “the blood”, “is calculated six months after” for “are collected to comparison between”, “completion of interferon therapy.” for “two groups.”
It is confirmed that the ratio as calculated is higher in the EPA-E administered group than the EPA-E non-administered group.

[10] = healthy male adult, cited from earlier work
[11] = in one week of continuous oral administration

CC/C=C\C/C=C\C/C=C\C/C=C\C/C=C\CCCC(=O)O [EPA, icosapentaenoic acid]
HCV replication-inhibiting effect independent of cytotoxicity [1]: only linoleic acid had the HCV replication-inhibiting effect | anaemia during combination therapy with interferon and ribavirin [2]: can prevent anaemia | effect of interferon and EPA in combination versus interferon alone on hepatitis C complicated with hepatic steatosis (hepatitis C virus (HCV) [3]): greater effect | HCV replication [4]: inhibited HCV replication

CCCCC/C=C\C/C=C\CCCCCCCC(=O)O [linoleic acid]
HCV replication-inhibiting effect independent of cytotoxicity [1]: only linoleic acid had the HCV replication-inhibiting effect

IFN-α
HCV elimination rate (hepatitis C virus (HCV) [5]): about 30%

CCCCC/C=C\C/C=C\C/C=C\C/C=C\CCCC(=O)O [arachidonic acid]
HCV replication-inhibiting effect independent of cytotoxicity [1]: only linoleic acid had the HCV replication-inhibiting effect | HCV replication [4]: inhibited HCV replication

CC/C=C\C/C=C\C/C=C\C/C=C\C/C=C\C/C=C\CCC(=O)O [DHA, docosahexaenoic acid]
HCV replication-inhibiting effect independent of cytotoxicity [1]: only linoleic acid had the HCV replication-inhibiting effect

CC/C=C\C/C=C\C/C=C\C/C=C\C/C=C\CCCC(=O)OCC [EPA-E, ethyl icosapentate]
reduction of HCV-RNA level compared with before administration (hepatitis C virus (HCV) [6]; COBAS AMPLICOR MONITOR assay): not less than 10% | reduction of ALT activity compared with before administration (hepatitis C virus (HCV) [6]): not less than 10% | reduction in viral load (difference between common logarithm values of the blood HCV-RNA level), on average [7]: 2.375 | ratio of patients becoming negative for the blood HCV-RNA level within 12 weeks after start of interferon administration [8]: increased | time at which patients become negative for the blood HCV-RNA level, versus EPA-E non-administered group [8]: shows a tendency to be earlier | effect on hepatitis C complicated with hepatic steatosis versus not complicated with hepatic steatosis (hepatitis C virus (HCV) [3]; ALT, HCV-RNA, hepatohistological test): greater | ratio at which patients became negative for the HCV-RNA level, versus EPA-E non-administered group (hepatitis C virus (HCV) [9]): higher | time at which the plasma EPA level reaches a plateau ([10]; continuous oral administration): one week | plasma EPA/AA (arachidonic acid) ratio [10, 11]: higher than 1.0 | plasma EPA/AA relative to that before administration [10, 11]: about two times
